From patent publication US20260028382A1, “IMMUNOGENIC PEPTIDES AND THEIR USES IN CANCER DIAGNOSIS AND THERAPY” (The Chinese University of Hong Kong, priority 2024, published 2026)

Test system: CD8+ T cells
Assay: IFN-γ ELISpot assay of peptide immunogenicity (peptide-pulsed DC:CD8+ T cell co-culture)
Format: cell-based, human
From the text: We obtained peripheral mononuclear cells (PBMCs) from healthy donor buffy coat samples via density gradient centrifugation. We utilized QIAamp DNA Blood Kits (Qiagen) to isolate DNA for HLA typing with LinkSeq™ HLA-ABCDRDQDP+ 384 Kit (One Lambda) on a QuantStudio™ 7 Flex Real-Time PCR System. Human T and dendritic cells (DCs) were enriched from PBMCs using a CD8 cell isolation kit and Pan-DC enrichment kit (Miltenyi Biotec), respectively, and subsequently cultured in RPMI-1640 medium (Life Technologies) supplemented with 10% FBS and 100 U/mL of Penicillin-Streptomycin.
Dendritic cells (DCs) were pulsed with a 10 μg mL^−1 peptide concentration at a cell density of 10^5 cells/mL for 4 hours at 37° C. Following this, the DCs were mixed with autologous CD8+ T cells at a DC:T cell ratio of 1:10. The cell mixture was then aliquoted into an ELISpot plate at 100 μL per well and incubated for 24 hours. The secreted IFN-γ signal was detected using the ELISpot Plus Human IFN-γ (ALP) kit (Mabtech). […]
We utilized ELISpot assay, which quantifies cytokine IFN-γ releasing by CD8^+ T lymphocytes isolated from PBMCs of healthy subjects, to verify the immunogenic potential of candidate peptides. […] We co-cultured pan-DCs loaded with the candidate peptides with autologous CD8′ T cells for 24 hours and assessed the secretion of IFN-γ as an indicator of T-cell activation and immunogenicity.

MCDEDETTA [Actin1-9, peptide derived from human Actin within the amino acid region 1-9, negative control]
T cell response (IFN-γ secretion) (peptide concentration of 1 ug mL^−1, DC:CD8+ T cell co-culture, 24 hours, healthy donors): negligible response

STIHLASQFTK (Description of sequence: non-canonical peptide, associated gene: CRYBG1, classification: CDS (frame-shift), short form name: p9; listed as Homo sapiens)
immunogenicity demonstrated in the ELISpot analysis: strong immunogenicity
